How the values were obtained:
[1] = Polymerization of styrene in sealed tube at 70° C; conditions: for dry polymer weight: 10.0 grams styrene
Procedure: An 18 × 150 mm pyrex test tube was filled with 10.0 grams of distilled styrene monomer and 0.121 grams (8.4 × 10^^-4 moles) of 2-t-butylazo-2-hydroxypropane. The test tube was flushed out with nitrogen and placed in a constant temperature bath thermostatted at 70° C. After 4.0 hours at 70° C, the tube was removed and quickly chilled to -20° F to prevent post polymerization. The sealed tube was then broken and the polymer dissolved in 1000 ml of methanol to precipitate the polystyrene. The polymer was separated by filtration and dried in an oven at 50°-55° C. The dry polymer weighed 3.4 grams (34% conversion). The rate of conversion of monomer to polymer was 8.5% per hour.
An 18 × 150 mm pyrex test tube was filled with 10.0 grams of distilled styrene monomer and 0.134 grams (8.5 × 10^^-4 moles) of 2-t-butylazo-2-hydroxybutane from Example V. The test tube was flushed out with nitrogen and placed in a constant temperature thermostatted bath at 70° C. After 6.0 hours at 70° C, the tube was removed and quickly chilled to -20° F to prevent post polymerization. The sealed tube was then broken and the polymer dissolved in 1000 ml of methanol to precipitate the polystyrene. The polymer was separated by filtration and dried in an oven at 50°-55° C. The dry polymer weighed 4.8 grams (48% conversion). The rate of conversion of monomer to polymer was 8.0% per hour.

[2] = Curing of unsaturated polyester-styrene resin
Procedure: An unsaturated polyester resin was made by reacting maleic anhydride (1.0 mole), phthalic anhydride (1.0 mole), and propylene glycol (2.2 moles) until an acid number of 45-50 was obtained. To this was added hydroquinone at a 0.013% concentration. Seven parts of this unsaturated polyester was diluted with 3 parts of monomeric styrene to obtain a homogeneous blend having a viscosity of 13.08 poise and a specific gravity of 1.14.
To 20 grams of this blend was added 0.128 gram of alpha-(tert.-butylazo)isobutyronitrile and the resultant composition placed in a constant temperature bath at 212° F. (100° C.). […] At 180° F. (82.2° C.), a peak exotherm of 381° F. (193.9° C.) was obtained in 13.3 minutes. The resultant cured materials were very hard.
The procedure of Example III was used at 212° F. (100° C.) and 240° F. (115.6° C.) where peak exotherms of 414° F. (212.2° C.) and 440° F. (226.7° C.) were obtained after 10.0 and 5.3 minutes respectively using 0.2 gram of the 1-tert.-butylazo-1-cyanocyclohexane. The resultant cured resins were very hard.
The curing procedure and resin are described in Example III.

[3] = for temperature at which it begins to evolve nitrogen: onset; for gas/nitrogen evolution or decomposition: room temperature or on melting
[4] = Thermal decomposition half-life; format: physicochemical; conditions: gas evolution technique, trichlorobenzene solvent
Procedure: It produces 179 cc. of gas per gram at 110° C. The following half-life data have been determined:
The following half-life data have been determined by gas evolution technique using trichlorobenzene as the solvent: […]

[5] = Oxidation of iodide ion to free iodine
[6] = 180° F. (82.2° C.), loading not given
[7] = 212° F. (100° C.), loading not given
[8] = 180° F. (82.2° C.), 1.0 weight per cent
[9] = 212° F. (100° C.), 1.0 weight per cent
[10] = 240° F. (115.6° C.), 1.0 weight per cent
[11] = 265° F. (129.4° C.), 1.0 weight per cent

## CCC(C)(O)N=NC(C)(C)C (stereo not shown) [2-t-butylazo-2-hydroxybutane]
[1]; 6.0 hours
  rate of conversion of monomer to polymer: 8.0 % per hour
  dry polymer weight: 4.8 grams
[1]; 6.0 hours, 8.5 × 10^^-4 moles in 10.0 grams styrene
  conversion: 48%

## CC(C)(C)N=NC(C)(C#N)C(C)(C)C (stereo not shown) [Example IX, 2-tert.-butylazo-2-cyano-3,3-dimethylbutane]
[2]
  hardness of cured resin: very hard
[2]; [6]
  peak exotherm: 388 ° F.
  time to peak exotherm: 10.4 min
[2]; [7]
  peak exotherm: 430 ° F.
  time to peak exotherm: 4.9 min
[3]
  temperature at which it begins to evolve nitrogen: 95 °C

## CCCNC(C)(CC(C)C)N=NC(C)(C)C (stereo not shown) [Example LX, 2-t-Butylazo-2-(propylamino)-4-methylpentane]
[3]
  gas/nitrogen evolution or decomposition: slowly evolves gas at room temperature

## CC(C)CC(C#N)(CC(C)C)N=NC(C)(C)C [Example VII, 4-tert.-butylazo-4-cyano-2,6-dimethylheptane]
[2]
  hardness of cured resin: very hard
[2]; [8]
  peak exotherm: 371 ° F.
  time to peak exotherm: 2.8 min
[3]
  temperature at which it begins to evolve nitrogen: 70 °C

## CC1CC(C)(C)CC(C#N)(N=NC(C)(C)C)C1 (stereo not shown) [Example VIII, 1-tert.-butylazo-1-cyano-3,3,5-trimethylcyclohexane]
[2]
  hardness of cured resin: very hard
[2]; [8]
  peak exotherm: 384 ° F.
  time to peak exotherm: 9.4 min
[3]
  temperature at which it begins to evolve nitrogen: 100 °C

## CC(C)(C#N)N=NC(C)(C)c1ccccc1 [Example XI, Alpha-(tert.-cumylazo)isobutyronitrile]
[2]
  hardness of cured resin: very hard
[2]; [8]
  peak exotherm: 378 ° F.
  time to peak exotherm: 1.3 min
[3]
  temperature at which it begins to evolve nitrogen: 55 °C

## CC(C)(C)N=NC(C)(C#N)C1CC1 (stereo not drawn) [Example XII, Alpha-tert-butylazo-alpha-cyclopropylpropionitrile]
[2]
  hardness of cured resin: very hard
[2]; [6]
  peak exotherm: 403 ° F.
  time to peak exotherm: 3.3 min
[2]; [7]
  peak exotherm: 420 ° F.
  time to peak exotherm: 2.1 min
[3]
  temperature at which it begins to evolve nitrogen: 75 °C

## CC(C)(C)N=NC(N)=O [Example XIII, tert.-butylazoformamide]
[2]
  hardness of cured resin: very hard
[2]; [9]
  peak exotherm: 407 ° F.
  time to peak exotherm: 7.1 min
[2]; [10]
  peak exotherm: 430 ° F.
  time to peak exotherm: 5.9 min
[2]; [11]
  peak exotherm: 438 ° F.
  time to peak exotherm: 4.5 min
[4]; 110° C
  t 1/2: 5.73 h
[4]; 120° C
  t 1/2: 3.00 h
[4]; 130° C
  t 1/2: 0.87 h
[4]; 150° C
  t 1/2: 0.14 h

## CC(C)OC(=O)N=NC(C)(C)c1ccccc1 [Example XVIII B, Isopropyl tert.-cumylazocarboxylate]
[3]
  temperature at which it evolves nitrogen: 80 °C

## CC(C)(C)N=NC(=O)c1ccccc1 [Example XX, Benzoyl tert.-butyldiimide]
[2]
  hardness of cured resin: hard
[2]; [8]
  peak exotherm: 233 ° F.
  time to peak exotherm: 10.0 min
[3]
  temperature at which it evolves nitrogen: 25 °C

## CC(C)(C)N=NC(C)(C)C(N)=O [Example XXV, 2-t-butylazo-2-carbamylpropane]
[2]; [10]
  peak exotherm: 442 ° F.
  time to peak exotherm: 5.7 min
[3]
  temperature at which it evolves nitrogen: above 120 °C

## CC(C)CC(C)(N=NC(C)(C)C)SC#N (stereo not shown) [LI, 2-t-Butylazo-2-thiocyanato-4-methylpentane]
[2]; bath 115° C.
  Barcol Hardness: 45
  Minutes to Peak Exotherm: 3.4 min
  peak exotherm: 438 ° F

## CC(C)CC(C)(N=NC(C)(C)C)OC#N (stereo not shown) [LIII, 2-t-Butylazo-2-cyanato-4-methylpentane]
[2]; bath 115° C.
  Barcol Hardness: 45
  Minutes to Peak Exotherm: 3.8 min
  peak exotherm: 412 ° F

## CC(C)CC(C)(N=NC(C)(C)C)OC(C)(C)C (stereo not shown) [LIV, 2-t-Butylazo-2-t-butoxy-4-methylpentane]
[2]; bath 115° C.
  Barcol Hardness: 20
  Minutes to Peak Exotherm: 2.8 min
  peak exotherm: 358 ° F

## CC(C)CC(C)(N=NC(C)(C)C)OOC(C)(CC(C)C)N=NC(C)(C)C (stereo not shown) [LVIII, Di[1-(t-butylazo)-1,3-dimethylbutyl] Peroxide]
[3]
  gas/nitrogen evolution or decomposition: began to gas rapidly upon reaching room temperature

## CC(C)CC(C)(N=NC(C)(C)C)NNC(C)(C)C (stereo not shown) [LXIX, 2-t-Butylazo-2-t-butylhydrazo-4-methylpentane]
[2]; bath 82° C.
  Barcol Hardness: 40
  Minutes to Peak Exotherm: 1.4 min
  peak exotherm: 275 ° F
[3]
  gas/nitrogen evolution or decomposition: evolves nitrogen at room temperature

## CC(C)CC(C)(N=NC(C)(C)C)OOC(C)(C)CCC(C)(C)OOC(C)(CC(C)C)N=NC(C)(C)C (stereo not shown) [LXV, 2,2,5,8,8,11,11,14,17,17-decamethyl-5,14-diisobutyl-Δ^3,15-3,4,15,16-tetraaza-6,7,12,13-tetraoxaoctadecadiene]
[3]
  temperature at which it evolves nitrogen: 30 °C

## CC(C)CC(C)(N=NC(C)(C)C)NNc1ccccc1 (stereo not shown) [LXVIII, 2-t-Butylazo-2-phenylhydrazo-4-methylpentane]
[3]
  gas/nitrogen evolution or decomposition: decomposes rapidly at room temperature

## CC(C)(C)N=NC(C)(C)O [LXXII, 2-t-Butylazo-2-hydroxypropane]
[1]; 4.0 hours
  rate of conversion of monomer to polymer: 8.5 % per hour
  dry polymer weight: 3.4 grams
[1]; 4.0 hours, 8.4 × 10^^-4 moles in 10.0 grams styrene
  conversion: 34%

## CNC(=O)N=NC(C)(C)C [XIV, tert.-butylazo-N-methylformamide]
[2]
  hardness of cured resin: very hard
[2]; [11]
  peak exotherm: 428 ° F.
  time to peak exotherm: 17.1 min

## CC(C)CC(C)(N=NC(C)(C)C)N=[N+]=[N-] (stereo not shown) [XLII, 2-t-butylazo-2-azido-4-methylpentane]
[2]; bath 100° C.
  Barcol Hardness: 40
  Minutes to Peak Exotherm: 5.3 min
  peak exotherm: 418 ° F

## CN(C)C(=O)N=NC(C)(C)C [XV, tert.-butylazo-N,N-dimethylformamide]
[5]
  oxidizing of iodide ion: oxidized iodide ion to free iodine

## COC(=O)CNC(=O)N=NC(C)(C)C [XVI, tert.-butylazo-N-carbmethoxymethylformamide]
[5]
  oxidizing of iodide ion: oxidized iodide ion to free iodine
[2]
  hardness of cured resin: very hard
[2]; [10]
  peak exotherm: 356 ° F.
  time to peak exotherm: 15.8 min
[2]; [11]
  peak exotherm: 484 ° F.
  time to peak exotherm: 5.1 min
[3]
  temperature at which it begins to evolve nitrogen: 140 °C

## CC(C)(C)N=NC(=O)NCC(=O)O [XVII, tert.-butylazo-N-carboxymethylformamide]
[5]
  oxidizing of iodide ion: oxidized iodide ion to free iodine
[3]
  temperature at which it begins to evolve nitrogen: 60 °C

## CC(C)(C)N=Nc1nc(N=NC(C)(C)C)nc(N=NC(C)(C)C)n1 [XXI, 2,4,6-Tri-(tert.-butylazo)-1,3,5-triazine]
[5]
  oxidizing of iodide ion: oxidized iodide ion to free iodine
[3]
  temperature at which it begins to evolve nitrogen: 102 °C

## C=C(C)N=NC(C)(C)C [XXII, 2(-tert.-butylazo)propene]
[3]
  gas/nitrogen evolution or decomposition: evolves nitrogen at room temperature

## CC(C)(C)N=NC1(C(N)=O)CCCCC1 [XXIV, 1-tert. butylazo-1-carbamylcyclohexane]
[2]; [10]
  peak exotherm: 444 ° F.
  time to peak exotherm: 6.8 min
[3]
  temperature at which it evolves nitrogen: above 120 °C

## COC(C)(N=NC(C)(C)C)c1ccccc1 (stereo not shown) [XXXIX, 1-t-butylazo-1-methoxy-1-phenylethane]
[2]; bath 82° C.
  Barcol Hardness: 40
  Minutes to Peak Exotherm: 6.6 min
  peak exotherm: 371 ° F

## COC(C)(CC(C)C)N=NC(C)(C)C (stereo not shown) [XXXVI, 2-t-butylazo-2-methoxy-4-methylpentane]
[2]; bath 115° C.
  Barcol Hardness: 40
  Minutes to Peak Exotherm: 7.2 min
  peak exotherm: 400 ° F

Source: patent publication US4007165A (priority 1974, dated 1977)
